Key:
cancer cell lines = experiment: MTT cytotoxicity assay on cancer cell lines; type: cell-based; conditions: various cancer cells
Procedure: Cancer cells are cultured in medium (Invitrogen) with 10% Fetal bovine serum (FBS), 100 U/mL penicillin and 100 μg/mL streptomycin at 37° C. For normoxic condition, cells are incubated with ambient O2 concentration and 5% CO2, for hypoxic condition, cells are incubated with 0.1-0.5% O2 (Quorum FC-7 automatic CO2/O2/N2 gas mixer) and 5% CO2.
Cell viability is measured using a 3-(4,5-dimethylthiazol-2-yl)-2,5-diphenyltetrazolium bromide (MTT) proliferation assay. Briefly, cancer cell lines (e.g. HCT116, 4T1, and SMMC7721) are seeded in a 96-well flat-bottomed microplate and cultured in 100 μL growth medium at 37° C. and 5% CO2 for 24 h. Cell culture medium in each well is then replaced by 100 μL cell growth medium, containing either no drug, DM1 alone or modified hemoglobin-based cytotoxic agents at series concentrations. Incubation of drugs for 24 h, cell culture medium containing drugs is replaced by 100 μL MTT labeling reagent (1 mg/mL in PBS solution) in each well and incubation for further 4 h at 37° C. The medium is removed gently, and 50 μL DMSO is then added to each well as solubilizing agent to dissolve the formazan crystals completely. The absorbance at the wavelength of 570 nm is measured by iMark Microplate Absorbance Spectrophotometer, and each data point represents the means±SD from triplicate wells.

[1] = Biodistribution of AF750-labeled agents in normal mice; type: in vivo, normal BALB/c mice; conditions: 72 h post-injection, 40 mg/kg intravenously
Procedure: Biodistribution of Hb-SMCC-DM1 (Prepared using one-step method in Example 5, MDR of 3.0) in normal mice is performed by using normal mice model. Briefly, normal BALB/c mice are injected intravenously with 40 mg/kg of Hb-AF750 and Hb-SMCC-DM1-AF750, respectively, and imaged serially from 2 hour to 72 hour post-injection. The mice are sacrificed at 72 hour of drug administration to collect various kinds of organ for imaging.

[2] = Preliminary repeat-dose toxicity in normal mice; type: in vivo; conditions: weekly, four IV doses, BALB/c mice
Procedure: The toxicity of Hb-SMCC-DM1 with an (Prepared using one-step method in Example 5, MDR of 3.0) is evaluated in repeat-dose study in normal BALB/c mice. Briefly, mice (n=3, females/group) are administered with unconjugated-DM1 and Hb-SMCC-DM1 weekly for a total of four IV doses at PBS, 2.5 mg/kg of unconjugated-DM1, and 42, 84, 126, and 168 mg/kg of Hb-SMCC-DM1, respectively. Body weights are recorded at every 3 days.

Molecule | IC50 (cancer cell lines) | location of fluorescence signal (biodistribution) [1] | tolerated dose [2]
hemoglobin | > 10 µM | mainly in liver and kidney | –
COc1cc2cc(c1Cl)N(C)C(=O)C[C@H](OC(=O)[C@H](C)N(C)C(=O)CCS)[C@]1(C)O[C@H]1[C@H](C)[C@@H]1C[C@@](O)(NC(=O)O1)[C@H](OC)/C=C/C=C(\C)C2 [unconjugated-DM1, mertansine (DM1)] | – | – | up to 2.5 mg/kg

Source: patent publication US11576978B2, “Hemoglobin-based therapeutic agents” (priority 2019, dated 2023)
